In this assay the target is T1, human Grb2 SH2 domain (Homo sapiens, UniProt P62993).
T1 construct: SH2 domain of human Grb2 (amino acids 58-159); made in house; host or cells: E. coli (pGEX-2T)
Description: SH2 domain / pY peptide binding assay (ELISA-based, 96 well plate), Grb2 SH2. As to conditions: for Ki: Ki calculated from IC50 by the expanded equation, Table II; for IC50: cloned human SH2 domain fusion protein, 0.1 uM biotinylated pY peptide, Table I. The method, then: The inhibitory activity of compounds at the different human SH2 domains was determined in vitro using SH2 domains expressed as fusion proteins in E. coli. The SH2 domains used herein were the human forms of the src SH2 domain, Grb2 SH2 domain, lck SH2 domain, fyn SH2 domain, SH-PTP2 SH2 domain, p85 SH2 domain and hcp SH2 domain.
Fusion proteins having the structure GST-X-SH2 were prepared as described in the GST gene fusion kit system available from Pharmacia (New Jersey). GST is the tagging sequence glutathione s-transferase epitope (SEQ ID NO: 8) for fyn, Grb2 and SH-PTP2 and is the tagging sequence glutathione s-transferase epitope (SEQ ID NO: 9) for p85. SH2 refers to the SH2 domains of fyn, Grb2, p85 and SH-PTP2 which were expressed and purified using glutathione Sepharose 4B (Pharmacia) according to "Current Protocols in Molecular Biology", ed. FM Ausubel et al., pub. John Wiley and Sons, Inc., (1995), p 16.7.1. X is an appropriate linker, preferably of 6 to 21 base pairs, used to keep the SH2 construct in frame and complement cloning. As such, the sequence of X is not critical. One skilled in the art can readily construct the appropriate linker. The DNA sequence encoding each GST-X-SH2 fusion protein was designed such that the indicated restriction sites (BamH1 and EcoRI) flank the SH2 region. The vector used in the instant experiments was the E. coli expression vector pGEX-2T (Pharmacia) for fyn, Grb2 and SH-PTP2, and pGEX-3X (Pharmacia) for p85. Each of these vectors result in SH2 constructs having additional C-terminal amino acids as described below.
Human Grb2 SH2 domain: The sequence encoding the SH2 domain of human Grb2 (amino acids 58-159) (Lowenstein, E. et al., Cell 70, 431-442 (1992)) was cloned into the BamHI and EcoRI sites of the expression vector pGEX-2T. The SH2 domain including the additional C-terminal amino acids isoleucine-histidine-arginine-aspartate (SEQ ID NO: 25) was cloned by PCR techniques known to those skilled in the art to yield the expressed fusion protein GST-X-Grb2.
The binding assays for the SH2 domains and pY peptides were performed in an ELISA-based 96 well plate assay. In Millipore 96 well filter plates, hydrophilic Durapore® (pore size 0.65um Cat. No. MADVN6550), was added 2 ul (50% suspension) of Protein-G Sepharose (available from Pharmacia of N.J. Cat. No. 17-0618-01) and either 2 ul of 2 mg/ml of MAB178. (for gp120/SH2 domain fusion proteins src, lck and hcp) or 0.25 ul of anti-GST polyclonal antisera (available from Pharmacia of N.J.) (for GST/SH2 domain fusion proteins fyn, Grb2, p85 and SH-PTP2). 10 pmol of the subject SH2 domain fusion protein were added to their respective wells. The volume was brought to 100 ul with TBS-T (tris buffered saline plus 0.05% tween-20), incubated and shaken at room trmperature for 1 hr. then washed 1x with TBS-T (4°C). 90 ul of TBS-T were then added to each well. Specific pY biotinylated peptides were diluted to a concentration of 1.0 uM in TBS-T (these peptides can be obtained from Bachem Bioscience of Pennsylvania, Genosys Biotechnologies of Texas and California Peptide Research of California). 10 ul was aliquoted per well to yield a final concentration of 0.1 uM (approx, the Kd for each SH2 domain/peptide pair) and a final volume of 100 ul. The assay plates were incubated until equilibrium binding was attained (3 hr at 4°C with shaking). The assay plates were washed 2 X per well TBS-T (4°C), then 100 ul of SABC (Strepavidin biotinylated horseradish peroxidase complex, available from the Zymed corporation of California cat. no. 93-0043, 1 drop reagent A (streptavidin) and 1 drop of reagent B (AH-biotin conjugated-horseradish peroxidase) per 10 ml of TBS-T, incubated at 37°C for 30 minutes, then cooled to 4°C) was added per well, then incubated at 4°C for 30-60 minutes. The plates were then washed 4 X with TBS-T (4°C) (250 ul/well)/wash). […]

A value given as a limit tells only on which side of the number the result lay.

As a reminder, the Ki is the equilibrium dissociation constant of an inhibitor or competing ligand from its target. As usually defined, the IC50 is the concentration at which inhibition is half-maximal. High values mean weaker potency, low ones greater potency.

T1 sequence (P62993 58-159): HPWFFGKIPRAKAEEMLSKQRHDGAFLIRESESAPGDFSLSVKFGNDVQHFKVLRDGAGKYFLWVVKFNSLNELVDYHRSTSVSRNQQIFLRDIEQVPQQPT

Consider “4-acetamido-benzamido-trans-4-methyl-cyclohexyl-N-1-(amino-R-2-(methoxy methyl)-pyrrolidine) carboxamide [Compound 8]”, for which the inhibition constant (Ki) was 330 µM and the IC50 is above 300 µM.
Regarding `Cc1nnc(SCC2=C(C(=O)O)N3C(=O)[C@@H](NC(=O)C(N)c4ccc(C(=O)O)cc4)[C@H]3SC2)s1` (stereo partly drawn) [Compound 1, 7-[D,L-α-Amino-α-(4-carboxyphenyl)acetamido]-3-[2-(5-methyl-1,3,4-thiadiazolyl)thiomethyl]Δ^3-cephem-4-carboxylic Acid], the Ki is above 1000 µM and the IC50 was above 300 µM.
Taken in the same sequence, the figures for `N[C@@H](Cc1cc(Br)c(Oc2ccc(O)c(Cc3ccc(O)nn3)c2)c(Br)c1)C(=O)O` [Compound 2, L-3,5-Dibromo-3'-(6-oxo-3(1H)-pyridazinylmethyl)-thyronine] were above 1000 µM and above 300 µM.
For `Cc1nc2sc3c(c2c2[nH][nH]c(=O)c12)CCC1(C3)OCCO1` [Compound 3, 8,8-Ethylenedioxy-2,3,7,8,9,10-hexahydro-4-methyl-1H-benzo[b]thieno[2,3-b]pyrazolo[3,4-d]pyridin-3-one], the Ki was above 1000 µM and the concentration for half-maximal inhibition (IC50) was above 300 µM.
As to `Cc1ccc(C(=O)c2ccc(C(=O)c3ccc(CC=O)cc3)cc2)cc1` [Compound 4, 4-[4-(4-Methylbenzoyl)benzoyl]phenylacetaldehyde], the Ki was above 1000 µM and the half-inhibitory concentration (IC50) was above 300 µM.
As for `Cc1nc2sc3c(c2c2c1c(=O)[nH]n2C)CCC1(C3)OCCO1` [Compound 5, 1,4-Dimethyl-8,8-ethylenedioxy-2,3,7,8,9,10-hexahydro-1H-benzo[b]thieno[2,3-b]pyrazolo[3,4-d]pyridin-3-one], the Ki was above 1000 µM and the IC50 is above 300 µM.
`CCCCCCNC(=O)[C@H]1CC[C@H](CNC(=O)c2ccc([N+](=O)[O-])cc2)CC1` [Compound 7, 4-nitro-benzamido-trans-4-methyl-cyclohexyl-N-hexyl carboxamide]: the Ki was above 1000 µM and the IC50 was above 300 µM.
The matching figures for `CCCNC(=O)[C@H]1CC[C@H](CNC(=O)/C=C/c2ccc(C=O)cc2)CC1` [Compound 9, 4-formyl-E-cinnamido-trans-4-methyl-cyclohexyl-N-(propyl) carboxamide]: above 1000 µM and above 300 µM.
In the case of `Cc1nc2sc3c(c2c2[nH][nH]c(=O)c12)CCCC3` [Compound 10, 2,3,7,8,9,10-Hexahydro-4-methyl-1H-benzo[b]thieno[2,3-b]pyrazolo[3,4-d]pyridin-3-one], the Ki was above 1000 µM and the IC50 is above 300 µM.
